Numbers after ± are expanded uncertainties.
Test: xn = mol fraction of the nth substance listed
Conditions: for surface tension liquid-gas / mass density: discharge crucible method; for mass density / viscosity: 100 kPa, Liquid; for viscosity: discharge crucible

[Pb] [lead] + [Sb]
Conditions	mass density [kg/m3]	surface tension liquid-gas [mN/m]	viscosity [mPa·s]
573 K, x2 = 0.1675	10206 ± 610	437.1 ± 26	2.565 ± 0.17
623 K, x2 = 0.1675	10142 ± 610	433.7 ± 26	2.262 ± 0.15
673 K, x2 = 0.1675	10087 ± 600	429.9 ± 26	1.999 ± 0.13
673 K, x2 = 0.4	9263 ± 560	418.3 ± 25	1.873 ± 0.12
723 K, x2 = 0.1675	10019 ± 600	426.6 ± 26	1.836 ± 0.12
723 K, x2 = 0.4	9201 ± 550	414.6 ± 25	1.721 ± 0.11
773 K, x2 = 0.1675	9963 ± 600	422.8 ± 25	1.694 ± 0.11
773 K, x2 = 0.4	9143 ± 550	411.5 ± 25	1.573 ± 0.1
773 K, x2 = 0.6	8244 ± 500	400.5 ± 24	1.561 ± 0.1
823 K, x2 = 0.1675	9905 ± 590	419.1 ± 25	1.583 ± 0.1
823 K, x2 = 0.4	9095 ± 550	407.8 ± 24	1.475 ± 0.097
823 K, x2 = 0.6	8185 ± 490	397.1 ± 24	1.449 ± 0.095
873 K, x2 = 0.1675	9862 ± 590	415.6 ± 25	1.495 ± 0.098
873 K, x2 = 0.4	9042 ± 540	403.9 ± 24	1.358 ± 0.089
873 K, x2 = 0.6	8138 ± 490	393.9 ± 24	1.333 ± 0.088
873 K, x2 = 0.9	6977 ± 420	376.2 ± 23	1.539 ± 0.1
923 K, x2 = 0.1675	9814 ± 590	411.9 ± 25	1.425 ± 0.093
923 K, x2 = 0.4	8991 ± 540	400.2 ± 24	1.266 ± 0.083
923 K, x2 = 0.6	8098 ± 490	390.7 ± 23	1.211 ± 0.08
923 K, x2 = 0.9	6938 ± 420	372.6 ± 22	1.357 ± 0.089
973 K, x2 = 0.9	6892 ± 410	368.6 ± 22	1.212 ± 0.08
1023 K, x2 = 0.9	6856 ± 410	364.4 ± 22	1.118 ± 0.074
